Measured values: ChEMBL document CHEMBL3885881, “DrugMatrix”

Species on record: Rattus norvegicus
Assay: DrugMatrix - Regimen: Daily Repeat
Assay type: toxicity, organism-based, Sprague-Dawley
Set-up: regimen Daily Repeat, gender Male, age 6-8 weeks
Conditions: in vivo, po, 29 mg/kg, route oral GAVAGE, dose level Low, vehicle .5 % CMC; for ABSOLUTE BASOPHIL / ABSOLUTE EOSINOPHIL / ABSOLUTE LYMPHOCYTE / ABSOLUTE MONOCYTE / ABSOLUTE SEGMENTED NEUTROPHIL / BASOPHIL / EOSINOPHIL / ERYTHROCYTE COUNT / HEMATOCRIT / HEMOGLOBIN / LEUKOCYTE COUNT / LYMPHOCYTE / MEAN CORPUSCULAR HEMOGLOBIN / MEAN CORPUSCULAR HEMOGLOBIN CONCENTRATION / MEAN CORPUSCULAR VOLUME / MONOCYTE / NEUTROPHIL / NUCLEATED RED BLOOD CELLS / PLATELET COUNT: tissue Blood; for ALANINE AMINOTRANSFERASE / ALBUMIN / ALKALINE PHOSPHATASE / ASPARTATE AMINOTRANSFERASE / BLOOD UREA NITROGEN / CARBON DIOXIDE / CHLORIDE / CHOLESTEROL / CREATINE PHOSPHOKINASE / CREATININE / LACTATE DEHYDROGENASE / LIPASE / PHOSPHORUS / SODIUM / TOTAL BILIRUBIN / TOTAL PROTEIN / URIC ACID: tissue Plasma

Q: With `Nc1nc(O)c2ncn(COC(CO)CO)c2n1` [GANCICLOVIR] as the compound, how does the “ABSOLUTE BASOPHIL” value (72 h, time 3 day) read?
A: The value was 0 CELLS/uL.

Q: And the “ABSOLUTE EOSINOPHIL” value (72 h, time 3 day)?
A: Its value is 152 CELLS/uL.

Q: And the “ABSOLUTE LYMPHOCYTE” value (72 h, time 3 day)?
A: Its value is 12965 CELLS/uL.

Q: What about the “ABSOLUTE MONOCYTE” value (72 h, time 3 day) of the same compound?
A: Its value is 505.67 CELLS/uL.

Q: And the “ABSOLUTE SEGMENTED NEUTROPHIL” value (72 h, time 3 day)?
A: The value was 1544 CELLS/uL.

Q: What about the BASOPHIL (72 h, time 3 day) of the same compound?
A: The BASOPHIL was 0%.

Q: And the EOSINOPHIL (72 h, time 3 day)?
A: The EOSINOPHIL was 1%.

Q: And the “ERYTHROCYTE COUNT” value (72 h, time 3 day)?
A: The value was 5.64 x10E6/uL.

Q: And the HEMATOCRIT (72 h, time 3 day)?
A: Its HEMATOCRIT is 35.17%.

Q: And the HEMOGLOBIN (72 h, time 3 day)?
A: The HEMOGLOBIN was 13.17 G/DL.

Q: What about the “LEUKOCYTE COUNT” value (72 h, time 3 day) of the same compound?
A: The value was 15.17 x10E3/uL.

Q: And the LYMPHOCYTE (72 h, time 3 day)?
A: Its LYMPHOCYTE is 85.67%.

Q: What about the “MEAN CORPUSCULAR HEMOGLOBIN” value (72 h, time 3 day) of the same compound?
A: The value was 23.37 pg.

Q: What about the “MEAN CORPUSCULAR HEMOGLOBIN CONCENTRATION” value (72 h, time 3 day) of the same compound?
A: Its value is 37.47 G/DL.

Q: What about the “MEAN CORPUSCULAR VOLUME” value (72 h, time 3 day) of the same compound?
A: Its value is 62.37 fL.

Q: What about the MONOCYTE (72 h, time 3 day) of the same compound?
A: Its MONOCYTE is 3.33%.

Q: What about the NEUTROPHIL (72 h, time 3 day) of the same compound?
A: The NEUTROPHIL was 10%.

Q: What about the “NUCLEATED RED BLOOD CELLS” value (72 h, time 3 day) of the same compound?
A: The value was 0 /100WBC.

Q: And the “PLATELET COUNT” value (72 h, time 3 day)?
A: The value was 1360 x10E3/uL.

Q: What about the “ALANINE AMINOTRANSFERASE” value (72 h, time 3 day) of the same compound?
A: Its value is 48 u/L.

Q: What about the ALBUMIN (72 h, time 3 day) of the same compound?
A: The ALBUMIN was 4.17 G/DL.

Q: What about the “ALKALINE PHOSPHATASE” value (72 h, time 3 day) of the same compound?
A: The value was 319.67 u/L.

Q: What about the “ASPARTATE AMINOTRANSFERASE” value (72 h, time 3 day) of the same compound?
A: Its value is 96 u/L.

Q: And the “BLOOD UREA NITROGEN” value (72 h, time 3 day)?
A: The value was 18 mg/dL.

Q: And the “CARBON DIOXIDE” value (72 h, time 3 day)?
A: The value was 24 mmol/L.

Q: And the CHLORIDE (72 h, time 3 day)?
A: Its CHLORIDE is 103 MEQ/L.

Q: And the CHOLESTEROL (72 h, time 3 day)?
A: Its CHOLESTEROL is 67.67 mg/dL.

Q: What about the “CREATINE PHOSPHOKINASE” value (72 h, time 3 day) of the same compound?
A: Its value is 635.33 u/L.

Q: What about the CREATININE (72 h, time 3 day) of the same compound?
A: Its CREATININE is 0.21 mg/dL.

Q: What about the “LACTATE DEHYDROGENASE” value (72 h, time 3 day) of the same compound?
A: The value was 646.33 u/L.

Q: What about the LIPASE (72 h, time 3 day) of the same compound?
A: Its LIPASE is 8.67 u/L.

Q: And the PHOSPHORUS (72 h, time 3 day)?
A: Its PHOSPHORUS is 14.2 mg/dL.

Q: What about the SODIUM (72 h, time 3 day) of the same compound?
A: Its SODIUM is 145.5 MEQ/L.

Q: And the “TOTAL BILIRUBIN” value (72 h, time 3 day)?
A: Its value is 0.2 mg/dL.

Q: And the “TOTAL PROTEIN” value (72 h, time 3 day)?
A: The value was 5.9 G/DL.

Q: What about the “URIC ACID” value (72 h, time 3 day) of the same compound?
A: Its value is 2.23 mg/dL.

Q: And the “ABSOLUTE BASOPHIL” value (120 h, time 5 day)?
A: Its value is 0 CELLS/uL.

Q: And the “ABSOLUTE EOSINOPHIL” value (120 h, time 5 day)?
A: The value was 86.67 CELLS/uL.

Q: And the “ABSOLUTE LYMPHOCYTE” value (120 h, time 5 day)?
A: The value was 11979.33 CELLS/uL.

Q: And the “ABSOLUTE MONOCYTE” value (120 h, time 5 day)?
A: The value was 137.33 CELLS/uL.

Q: And the “ABSOLUTE SEGMENTED NEUTROPHIL” value (120 h, time 5 day)?
A: Its value is 1530 CELLS/uL.

Q: What about the BASOPHIL (120 h, time 5 day) of the same compound?
A: The BASOPHIL was 0%.

Q: What about the EOSINOPHIL (120 h, time 5 day) of the same compound?
A: The EOSINOPHIL was 0.67%.

Q: What about the “ERYTHROCYTE COUNT” value (120 h, time 5 day) of the same compound?
A: The value was 5.69 x10E6/uL.

Q: And the HEMATOCRIT (120 h, time 5 day)?
A: The HEMATOCRIT was 35.37%.

Q: What about the HEMOGLOBIN (120 h, time 5 day) of the same compound?
A: The HEMOGLOBIN was 13.23 G/DL.

Q: What about the “LEUKOCYTE COUNT” value (120 h, time 5 day) of the same compound?
A: Its value is 13.73 x10E3/uL.

Q: What about the LYMPHOCYTE (120 h, time 5 day) of the same compound?
A: The LYMPHOCYTE was 87%.

Q: And the “MEAN CORPUSCULAR HEMOGLOBIN” value (120 h, time 5 day)?
A: Its value is 23.27 pg.

Q: What about the “MEAN CORPUSCULAR HEMOGLOBIN CONCENTRATION” value (120 h, time 5 day) of the same compound?
A: The value was 37.47 G/DL.

Q: And the “MEAN CORPUSCULAR VOLUME” value (120 h, time 5 day)?
A: Its value is 62.13 fL.

Q: What about the MONOCYTE (120 h, time 5 day) of the same compound?
A: Its MONOCYTE is 1%.

Q: And the NEUTROPHIL (120 h, time 5 day)?
A: Its NEUTROPHIL is 11.33%.

Q: And the “NUCLEATED RED BLOOD CELLS” value (120 h, time 5 day)?
A: Its value is 0 /100WBC.

Q: What about the “PLATELET COUNT” value (120 h, time 5 day) of the same compound?
A: The value was 1168 x10E3/uL.

Q: And the “ALANINE AMINOTRANSFERASE” value (120 h, time 5 day)?
A: Its value is 47.67 u/L.

Q: And the ALBUMIN (120 h, time 5 day)?
A: The ALBUMIN was 4.2 G/DL.

Q: What about the “ALKALINE PHOSPHATASE” value (120 h, time 5 day) of the same compound?
A: Its value is 323 u/L.

Q: And the “ASPARTATE AMINOTRANSFERASE” value (120 h, time 5 day)?
A: Its value is 91.67 u/L.

Q: And the “BLOOD UREA NITROGEN” value (120 h, time 5 day)?
A: Its value is 19.33 mg/dL.

Q: And the “CARBON DIOXIDE” value (120 h, time 5 day)?
A: The value was 25.33 mmol/L.

Q: What about the CHLORIDE (120 h, time 5 day) of the same compound?
A: The CHLORIDE was 106.33 MEQ/L.

Q: What about the CHOLESTEROL (120 h, time 5 day) of the same compound?
A: The CHOLESTEROL was 74.67 mg/dL.

Q: What about the “CREATINE PHOSPHOKINASE” value (120 h, time 5 day) of the same compound?
A: Its value is 428.33 u/L.

Q: And the CREATININE (120 h, time 5 day)?
A: Its CREATININE is 0.15 mg/dL.

Q: And the “LACTATE DEHYDROGENASE” value (120 h, time 5 day)?
A: The value was 720 u/L.

Q: What about the LIPASE (120 h, time 5 day) of the same compound?
A: The LIPASE was 8.67 u/L.

Q: What about the PHOSPHORUS (120 h, time 5 day) of the same compound?
A: Its PHOSPHORUS is 11.4 mg/dL.

Q: What about the SODIUM (120 h, time 5 day) of the same compound?
A: Its SODIUM is 145.9 MEQ/L.

Q: What about the “TOTAL BILIRUBIN” value (120 h, time 5 day) of the same compound?
A: The value was 0.13 mg/dL.

Q: What about the “TOTAL PROTEIN” value (120 h, time 5 day) of the same compound?
A: Its value is 5.77 G/DL.

Q: What about the “URIC ACID” value (120 h, time 5 day) of the same compound?
A: Its value is 0.83 mg/dL.
